Data from patent US20120190666A1, “Heteroaryl Compounds as PIKK Inhibitors” (Amgen Inc., priority 2009, published 2012).
pIC50: −log10 of the molar value.

How the values were obtained:
[1] = molecular target: mTOR (Homo sapiens, UniProt P42345); experiment: mTOR LanthaScreen (TR-FRET, phosphorylation of 4EBP1); format: biochemical; details: phosphorylation of GFP-4E-BP1, 10 μM ATP, 90 minutes
Experimental: The mTOR LanthaScreen is a TR-FRET assay measuring the phosphorylation of mTOR's substrate 4EBP1. 384 well compound plates were prepared containing 1 μl of compound per well starting at 5 mM and diluted 1:2 across the row, resulting in a 22 well serial dilution. 24 μl of assay buffer (Invitrogen, PV4794) with 2 mM DTT was added to the compound plate in rows 1-24 using the VELOCITY 11™ VPREP™ 384 ST resulting in a DMSO concentration of 4%. The compound plate was mixed and 2.5 μl of serially diluted compound or controls was added to the assay plate (Costar, 3658).
The assay was conducted on the PerkinElmer® FlexDrop PLUS. A 5 μl mix of 800 nM GFP-4E-BP1 (Invitrogen, PV4759) and 20 μM ATP (Amgen) was added to rows 1-24. 2.5 μl of 0.6 μg/ml of mTOR Enzyme (Amgen) was added to rows 1-23. 2.5 μl of assay buffer was added to row 24 for the low control. The final concentration of the compounds was 50 μM serially diluted to 23.84 pM in 1% DMSO. […] The final concentrations in the assay reagents were 400 nM GFP-4E-BP1, 10 μM of ATP and 0.15 μg/ml of mTOR enzyme. The compound, enzyme, and substrate were incubated for 90 minutes. At this point, 10 μl of stop solution was added (20 mM Tris, pH 7.5 (Invitrogen, 15567-027), 0.02% Sodium Azide (Teknova, S0208), 0.01% NP-40 (Roche, 11754599001), 20 mM EDTA (Invitrogen, 15575-038) and 4 nM of Tb-anti-p4E-BP1 (Invitrogen, PV4758)) for a final concentration of 2 nM of Tb-anti-p4E-BP1.
Sixty minutes later the plates were read on the PerkinElmer® EnVision™ 2103 Multilable Reader using the Excitation filter 340 nm and the Emission filters 520 nm and 495 nm.

[2] = molecular target: T1, PI3Kα (Homo sapiens, UniProt P42336); experiment: In vitro PI3K AlphaScreen assay, PI3Kα; format: biochemical; details: PI(4,5)P2 substrate, 20 minutes at room temperature, read-out: P13Kalpha IC50 um
T1 construct: Full length p110 subunits of PI3K α, β and δ, N-terminally labeled with polyHis tag; polyHis (N); made in house; host or cells: Sf9 insect cells (baculovirus)
T1 sequence (P42336 whole entry): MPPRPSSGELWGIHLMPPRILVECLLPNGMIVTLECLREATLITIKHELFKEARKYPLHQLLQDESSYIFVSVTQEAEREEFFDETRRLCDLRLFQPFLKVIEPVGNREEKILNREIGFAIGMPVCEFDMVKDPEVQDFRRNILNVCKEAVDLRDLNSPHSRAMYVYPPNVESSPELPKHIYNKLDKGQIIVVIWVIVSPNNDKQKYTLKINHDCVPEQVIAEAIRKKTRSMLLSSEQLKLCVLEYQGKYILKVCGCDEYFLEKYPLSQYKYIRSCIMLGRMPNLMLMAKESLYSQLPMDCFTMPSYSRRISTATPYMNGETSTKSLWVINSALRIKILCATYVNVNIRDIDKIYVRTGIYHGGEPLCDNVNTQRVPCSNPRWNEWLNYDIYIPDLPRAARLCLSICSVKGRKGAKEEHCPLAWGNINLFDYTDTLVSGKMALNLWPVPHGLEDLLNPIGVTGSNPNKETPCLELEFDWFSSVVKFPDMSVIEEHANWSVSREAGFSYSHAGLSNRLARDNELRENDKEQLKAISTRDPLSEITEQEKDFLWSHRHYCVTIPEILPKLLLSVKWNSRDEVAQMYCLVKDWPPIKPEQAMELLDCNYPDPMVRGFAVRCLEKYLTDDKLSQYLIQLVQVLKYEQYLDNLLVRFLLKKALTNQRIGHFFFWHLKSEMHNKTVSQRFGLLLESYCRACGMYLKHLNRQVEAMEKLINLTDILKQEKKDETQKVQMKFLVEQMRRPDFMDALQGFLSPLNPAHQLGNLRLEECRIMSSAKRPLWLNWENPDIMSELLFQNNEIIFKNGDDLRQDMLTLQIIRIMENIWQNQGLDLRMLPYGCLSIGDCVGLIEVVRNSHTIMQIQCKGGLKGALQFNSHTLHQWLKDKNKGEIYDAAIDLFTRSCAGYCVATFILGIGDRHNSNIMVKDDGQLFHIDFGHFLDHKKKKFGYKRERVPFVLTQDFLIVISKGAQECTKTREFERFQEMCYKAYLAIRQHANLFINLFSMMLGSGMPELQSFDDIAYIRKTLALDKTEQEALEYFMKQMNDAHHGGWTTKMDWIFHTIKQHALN
T1 sequence (P27986 whole entry partner): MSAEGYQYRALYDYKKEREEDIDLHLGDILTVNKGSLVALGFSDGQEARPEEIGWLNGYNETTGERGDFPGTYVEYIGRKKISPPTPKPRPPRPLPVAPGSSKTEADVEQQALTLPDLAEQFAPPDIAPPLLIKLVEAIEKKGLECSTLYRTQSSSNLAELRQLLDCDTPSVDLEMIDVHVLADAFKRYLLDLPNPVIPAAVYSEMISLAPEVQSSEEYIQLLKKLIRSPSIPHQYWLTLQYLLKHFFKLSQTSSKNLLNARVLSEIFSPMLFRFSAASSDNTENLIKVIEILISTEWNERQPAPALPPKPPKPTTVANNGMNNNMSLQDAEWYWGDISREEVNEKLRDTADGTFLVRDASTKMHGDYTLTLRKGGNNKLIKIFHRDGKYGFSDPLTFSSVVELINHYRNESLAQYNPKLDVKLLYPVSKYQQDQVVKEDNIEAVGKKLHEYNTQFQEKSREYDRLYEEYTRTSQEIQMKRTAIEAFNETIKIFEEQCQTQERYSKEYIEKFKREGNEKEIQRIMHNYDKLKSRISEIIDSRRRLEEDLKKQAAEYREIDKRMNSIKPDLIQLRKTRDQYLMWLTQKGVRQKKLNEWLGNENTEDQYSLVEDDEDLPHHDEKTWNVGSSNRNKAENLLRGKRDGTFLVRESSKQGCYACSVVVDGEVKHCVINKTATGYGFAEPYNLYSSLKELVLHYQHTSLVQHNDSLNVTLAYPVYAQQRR
Experimental: The PI3K AlphaScreen® assay (PerkinElmer, Waltham, Mass.) measures the activity of a panel of four phosphoinositide 3-kinases: PI3Kα, PI3KIβ, PI3Kγ, and PI3Kδ. Each of these enzymes phosphorylates the 3′-hydroxyl group on phosphatidylinositiol (4,5)-bisphosphate (PIP2) to produce phosphatidylinositol (3,4,5)-trisphosphate (PIP3). This phosphorylation activity is measured using a GST-tagged PIP3 binding protein (Echelon Biosciences, Salt Lake City, Utah), an anti-GST-tagged Acceptor bead, and streptavidin-Donor bead. The interaction of biotinylated-PIP3 analog (IP4) and the PIP3 binding protein brings both Acceptor and Donor beads together producing, upon excitation of the Donor beads at 680 nm, a singlet oxygen species leading to the luminescent AlphaScreen® signal. When PIP3 is produced via phosphorylation of PIP2 by a PI3K, PIP3 competes with biotinylated-PIP3 analog (IP4) for binding to the PIP3 binding protein. In the absence of this interaction, proximity of the Donor and Acceptor beads is decreased, producing a loss of luminescent signal which is […] to PI3K activity. […] The enzyme reaction buffer is made using sterile water (Baxter, Deerfield, Ill.) and 50 mM Tris HCl pH 7, 14 mM MgCl2, 2 mM sodium cholate, and 100 mM NaCl. 2 mM DTT is added fresh the day of the experiment. The AlphaScreen® reaction buffer is made using sterile water and 10 mM Tris HCl pH 7.5, 150 mM NaCl, 0.10% Tween 20, and 30 mM EDTA. 1 mM DTT is added fresh the day of the experiment. The source plates for this assay are 384-well Greiner clear polypropylene plates containing test compounds at 5 mM and diluted 1:2 over 22 points. Columns 23 and 24 contain only DMSO as these are designated for positive and negative controls. Source plates are replicated into 384-well Optiplates (PerkinElmer, Waltham, Mass.), 0.5 μL/well, to make assay-ready plates. The different PI3K isoforms are each diluted in enzyme reaction buffer to 2× working solutions. PI3Kα is diluted to 1.6 nM, PI3Kβ is diluted to 0.8 nM, PI3Kγ is diluted to 15 nM, and PI3Kδ is diluted to 1.6 nM. Two different 2× substrate solutions are made in enzyme reaction buffer. In one solution, PI(4,5)P2 (Echelon Biosciences, Salt Lake City, Utah) is diluted to 10 μM and ATP is diluted to 20 μM. This solution is used in the assays testing PI3Kα and PI3Kβ. In a second solution, PI(4,5)P2 is diluted to 10 μM and ATP is diluted to 80 μM. This solution is used in the assays testing PI3Kγ and PI3Kδ. The AlphaScreen® reaction solutions are made using beads from the anti-GST AlphaScreen® kit (PerkinElmer, Waltham, Mass.). Two solutions are made in Alphascreen reaction buffer to 4× working concentrations. In one solution, biotinylated-IP4 (Echelon Biosciences, Salt Lake City, Utah) is diluted to 40 nM and streptavadin-Donor Beads are diluted to 80 μg/mL. In the second solution, PIP3-binding protein (Echelon Biosciences, Salt Lake City, Utah) is diluted to 40 nM and anti-GST-Acceptor Beads are diluted to 80 μg/mL. 10 μL/well of enzyme reaction buffer is added to Column 24 of the assay ready plates in place of enzyme. This is done for plates in the PI3Kα, β, and δ assays. Using a 384-well dispensing Multidrop (Titertek, Huntsville, Ala.), 10 μL/well of 2× enzyme (PI3Kα, β, δ) is added to Columns 1-23 of the appropriate assay ready plates (for PI3Kγ 10 μL is added to Columns 1-24). 10 μL/well of the appropriate substrate solution (the solution with 20 μM ATP for PI3Kα and β assays, and the solution with […] for PI3Kγ and δ assays) is then added to Columns 1-24 of the plates. Plates are then incubated at room temperature for 20 minutes. In the dark, 10 μL/well of the Donor Bead solution is added to Columns 1-24 of the plates to quench the enzyme reaction. The plates are incubated at room temperature for 30 minutes. Still in the dark, 10 μL/well of the Acceptor Bead solution is also added to Columns 1-24 of the plates. The plates are then incubated in the dark for 1.5 hours.

[3] = test system: phosphorylation of Akt at Serine 473 in U87 MG cells; experiment: pAkt AlphaScreen (U87 cell); format: cell-based; details: Homo sapiens, U-87 MG, 2 h; pAkt at Serine 473, U87 MG cells, two hours with compound
Experimental: The pAkt AlphaScreen® assay (PerkinElmer, Waltham, Mass.) determines whether there is phosphorylation of Akt at Serine 473 by recruitment of a phosphospecific antibody. This assay was performed using U87 MG cells. The U87 growth media consists of MEM (Gibco, Carlsbad, Calif.) supplemented with 10% FBS (Gibco), 1× Non-Essential Amino Acids (Gibco,) and 1× Penicillin/Streptomycin/Glutamine (Gibco). The cells were maintained weekly using 0.05% Trypsin (Gibco) and replated in 150 mm TC— Treated Culture Dishes (Corning, Corning, N.Y.).
The first day of the assay, the adherent cells were trypsinized, media was added to the loose cells and cells were mixed to a homogenous mixture. 0.5 ml of the homogenous mixture was counted on the Beckman Coulter® Vi-Cell™ XR (Fullerton, Calif.). 50 frames of cells were counted and the number of viable cells was determined. The cells were then diluted to 0.25 million cells per ml, and centrifuged at 200 rcf for 5 minutes. The media was removed and the cells were reconstituted in fresh media for plating. The cells were plated at 20 μl per well on the PerkinElmer® FlexDrop PLUS in Low Volume 384 Well White Tissue Culture Plates (Corning) with a final cell density of 5K cells per well. The plates were incubated overnight at 37° Celsius, 5% CO2.
On the second day, the compound plates were prepared, the cells were treated with compound and the pAkt reaction mix was added to the cell lysate. 384 well compound plates were prepared containing 1 μl of compound per well starting at 5 mM and diluted 1:2 across the row, resulting in a 22 well serial dilution. 39 μl of growth media was added to the compound plate in rows 1-22 using the PerkinElmer® FlexDrop PLUS resulting in a DMSO concentration of 2.5%. The cell plates and diluted compound plates were put onto the VELOCITY11™ VPREP™ 384 ST where the compound plate was mixed and 5 μl of serially diluted compound or controls was added to the cell plate. The final concentration of the compounds was 25 μM serially diluted to 11.9 pM in 0.5% DMSO.
The cell plates were then incubated with compound for two hours at 37° C., 5% CO2. After two hours, the media in the cell plates was aspirated using the BioTek® ELx405HT plate washer (Winooski, Vt.) removing the majority of media and compound without disturbing the adherent U87 cells. The following assay reagents are components of the SureFire® Akt (Ser 473) Phosphorylation 50K Point Kit (TGR BioSciences, Adelaide, Austalia) and an IgG Detection Kit (PerkinElmer, Waltham, Mass.). 5 μl of 1× Lysis Buffer was added to each well using the PerkinElmer® FlexDrop PLUS. The plates were then incubated at room temperature on a shaker for ten minutes. The AlphaScreen® reaction was prepared under low light conditions (subdued or green light) including p-Aid (Ser 473) Reaction Buffer, Dilution Buffer, Activation Buffer, Acceptor Beads and Donor Beads at a ratio of 40:20:10:1:1 respectively. The AlphaScreen® reaction was added to the cell lysate at 6 μl per well using the PerkinElmer® FlexDrop PLUS. The plates were placed in a humid environment to reduce edge effects and incubated overnight at room temperature with restricted air flow in the dark.
On the final day of the experiment, the plates were read on the PerkinElmer® EnVision™ 2103 Multilable Reader using the standard AlphaScreen® readout. The POC is calculated and the data is analyzed to report the IC50 IP for pAkt at Serine 473.
Activity data for the compounds tested in the PI3K cell based Akt assay is provided in Table 1 under the column heading U87

Cc1nc(N)nc(-c2c(Nc3ccn(C(=O)NCCO)n3)nc3ccccn23)n1 [Cpd 198, 3-((3-(4-amino-6-methyl-1,3,5-triazin-2-yl)imidazo[1,2-a]pyridin-2-yl)amino)-N-(2-hydroxyethyl)-1H-pyrazole-1-carboxamide]
pIC50 [1]: 6.96
pIC50 [2]: 5.66

Cc1nc(N)nc(-c2c(Nc3ccnn3C(=O)N3CCOCC3)nc3ccccn23)n1 [Cpd 201]
pIC50 [1]: 6.60
pIC50 [2]: 5.86

Cc1nc(N)cc(-c2c(Nc3ccn(S(C)(=O)=O)n3)nc3ccccn23)n1 [Cpd 217, 3-(6-amino-2-methyl-4-pyrimidinyl)-N-(1-(methylsulfonyl)-1H-pyrazol-3-yl)imidazo[1,2-a]pyridin-2-amine]
pIC50 [3]: 5.93
pIC50 [1]: 5.76

CNCCNC(=O)n1ccc(Nc2nc3cccnn3c2-c2cc(N)nc(C)n2)n1 [Cpd 258]
pIC50 [1]: 6.30
pIC50 [2]: 7.52
